# Assay results from ChEMBL document CHEMBL1201862, “PubChem BioAssay data set” (2004).
#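 Assay format: 96-well plates, 48-hour exposure. GI50 marks 50% less growth.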 Activity calls are given as the source filed them. No stated cut-off is given here; in the data, active = GI50 up to about 1.1 µM and inactive = higher.
# Tests used:
# Assay in all cases: NCI tumour cell line growth inhibition, 48 h
# DMS-114 = test system: DMS-114
# NCI-H522 = test system: NCI-H522
# SNB-19 = test system: SNB-19
# SK-MEL-28 = test system: SK-MEL-28
# HOP-92 = test system: HOP-92
# M14 = test system: M14
# Malme-3M = test system: Malme-3M
# UO-31 = test system: UO-31
# SF-268 = test system: SF-268
# UACC-62 = test system: UACC-62
# OVCAR-3 = test system: OVCAR-3
# A498 = test system: A498
# SR = test system: SR
# OVCAR-5 = test system: OVCAR-5
# KM-20L2 = test system: KM-20L2
# RXF 393 = test system: RXF 393
# NCI-H460 = test system: NCI-H460
# M19-MEL = test system: M19-MEL
# HOP-62 = test system: HOP-62
# OVCAR-4 = test system: OVCAR-4
# SNB-78 = test system: SNB-78
# RPMI-8226 = test system: RPMI-8226
# LXFL 529 = test system: LXFL 529
# IGROV-1 = test system: IGROV-1
# NCI-H23 = test system: NCI-H23
# MOLT-4 = test system: MOLT-4
# SK-OV-3 = test system: SK-OV-3
# KM12 = test system: KM12
# HT-29 = test system: HT-29
# SNB-75 = test system: SNB-75
# U-251 = test system: U-251
# CCRF-CEM = test system: CCRF-CEM
# HL-60 = test system: HL-60
# UACC-257 = test system: UACC-257
# K562 = test system: K562
# ACHN = test system: ACHN
# SF-295 = test system: SF-295
# COLO 205 = test system: COLO 205
# SK-MEL-2 = test system: SK-MEL-2
# T47D = test system: T47D
# SK-MEL-5 = test system: SK-MEL-5
# HCC 2998 = test system: HCC 2998
# PC-3 = test system: PC-3
# HCT-116 = test system: HCT-116
# SF-539 = test system: SF-539
# MDA-N = test system: MDA-N
# TK-10 = test system: TK-10
# DU-145 = test system: DU-145
# NCI-H226 = test system: NCI-H226
# SN12C = test system: SN12C
# SW-620 = test system: SW-620
# LOX IMVI = test system: LOX IMVI
# OVCAR-8 = test system: OVCAR-8
# MDA-MB-231 = test system: MDA-MB-231
# BT-549 = test system: BT-549
# HCT-15 = test system: HCT-15
# Hs-578T = test system: Hs-578T
# MDA-MB-435 = test system: MDA-MB-435
# CAKI-1 = test system: CAKI-1
# A549 = test system: A549
# MCF7 = test system: MCF7
# NCI/ADR-RES = test system: NCI/ADR-RES
# EKVX = test system: EKVX
# 786-0 = test system: 786-0
structure (smiles),measurement,setting,value
CCO[C@@H]1OC(=O)[C@@](C)(C(C)=O)[C@@H]1C,GI50,DMS-114,19.1 µM (inactive)
same,GI50,NCI-H522,> 100 µM (inactive)
same,GI50,SNB-19,19.1 µM (inactive)
same,GI50,SK-MEL-28,15.7 µM (inactive)
same,GI50,HOP-92,26.1 µM (inactive)
same,GI50,M14,26 µM (inactive)
same,GI50,Malme-3M,23.3 µM (inactive)
same,GI50,UO-31,37.9 µM (inactive)
same,GI50,SF-268,18.3 µM (inactive)
same,GI50,UACC-62,20.9 µM (inactive)
same,GI50,OVCAR-3,14.4 µM (inactive)
same,GI50,A498,> 100 µM (inactive)
same,GI50,SR,25.5 µM (inactive)
same,GI50,OVCAR-5,60 µM (inactive)
same,GI50,KM-20L2,41.4 µM (inactive)
same,GI50,RXF 393,24.1 µM (inactive)
same,GI50,NCI-H460,> 100 µM (inactive)
same,GI50,M19-MEL,19.1 µM (inactive)
same,GI50,HOP-62,20.8 µM (inactive)
same,GI50,OVCAR-4,29 µM (inactive)
same,GI50,SNB-78,25 µM (inactive)
same,GI50,RPMI-8226,18.7 µM (inactive)
same,GI50,LXFL 529,19.5 µM (inactive)
same,GI50,IGROV-1,36.5 µM (inactive)
same,GI50,NCI-H23,14.5 µM (inactive)
same,GI50,MOLT-4,19.2 µM (inactive)
same,GI50,SK-OV-3,43.6 µM (inactive)
same,GI50,KM12,28.4 µM (inactive)
same,GI50,HT-29,17.5 µM (inactive)
same,GI50,SNB-75,3.27 µM (inactive)
same,GI50,U-251,21 µM (inactive)
same,GI50,CCRF-CEM,13 µM (inactive)
same,GI50,HL-60,23 µM (inactive)
same,GI50,UACC-257,24.4 µM (inactive)
same,GI50,K562,30.5 µM (inactive)
same,GI50,ACHN,> 100 µM (inactive)
same,GI50,SF-295,20.1 µM (inactive)
same,GI50,COLO 205,87.7 µM (inactive)
same,GI50,SK-MEL-2,20.4 µM (inactive)
Cc1coc2c1C(OC(=O)C(C)C)C1(C)C(C)CCC(O)C1C2=O (stereo unspecified),GI50,NCI-H522,67.1 µM (inactive)
same,GI50,T47D,> 100 µM (inactive)
same,GI50,SK-MEL-5,> 100 µM (inactive)
same,GI50,SK-MEL-28,> 100 µM (inactive)
same,GI50,HCC 2998,> 91.4 µM (inactive)
same,GI50,PC-3,97.9 µM (inactive)
same,GI50,HCT-116,> 100 µM (inactive)
same,GI50,SF-539,> 100 µM (inactive)
same,GI50,HOP-92,> 100 µM (inactive)
same,GI50,MDA-N,> 100 µM (inactive)
same,GI50,TK-10,> 100 µM (inactive)
same,GI50,DU-145,> 100 µM (inactive)
same,GI50,NCI-H226,> 100 µM (inactive)
same,GI50,M14,> 100 µM (inactive)
same,GI50,Malme-3M,> 100 µM (inactive)
same,GI50,UO-31,50.2 µM (inactive)
same,GI50,SN12C,> 100 µM (inactive)
same,GI50,SF-268,> 100 µM (inactive)
same,GI50,UACC-62,> 100 µM (inactive)
same,GI50,SW-620,> 100 µM (inactive)
same,GI50,OVCAR-3,> 100 µM (inactive)
same,GI50,A498,> 100 µM (inactive)
same,GI50,SR,51.2 µM (inactive)
same,GI50,OVCAR-5,> 100 µM (inactive)
same,GI50,LOX IMVI,> 100 µM (inactive)
same,GI50,OVCAR-8,> 100 µM (inactive)
same,GI50,MDA-MB-231,> 100 µM (inactive)
same,GI50,RXF 393,> 100 µM (inactive)
same,GI50,NCI-H460,> 100 µM (inactive)
same,GI50,BT-549,> 50.8 µM (inactive)
same,GI50,HOP-62,> 100 µM (inactive)
same,GI50,HCT-15,> 100 µM
same,GI50,OVCAR-4,> 100 µM (inactive)
same,GI50,Hs-578T,> 100 µM (inactive)
same,GI50,MDA-MB-435,> 100 µM (inactive)
same,GI50,CAKI-1,> 100 µM (inactive)
same,GI50,A549,> 100 µM (inactive)
same,GI50,RPMI-8226,89.5 µM (inactive)
same,GI50,IGROV-1,> 100 µM (inactive)
same,GI50,NCI-H23,> 100 µM (inactive)
same,GI50,MOLT-4,93.1 µM (inactive)
same,GI50,MCF7,98.2 µM (inactive)
same,GI50,NCI/ADR-RES,> 100 µM (inactive)
same,GI50,SK-OV-3,> 100 µM (inactive)
same,GI50,KM12,> 100 µM (inactive)
same,GI50,EKVX,> 100 µM (inactive)
same,GI50,HT-29,> 100 µM (inactive)
same,GI50,SNB-75,> 100 µM (inactive)
same,GI50,786-0,> 100 µM (inactive)
same,GI50,U-251,> 100 µM (inactive)
same,GI50,CCRF-CEM,57.4 µM (inactive)
same,GI50,HL-60,46 µM (inactive)
same,GI50,UACC-257,> 100 µM (inactive)
same,GI50,K562,54 µM (inactive)
same,GI50,ACHN,> 100 µM (inactive)
same,GI50,SF-295,> 100 µM (inactive)
same,GI50,COLO 205,97.7 µM (inactive)
same,GI50,SK-MEL-2,> 100 µM (inactive)
N#CC(c1ccccc1)N(CCc1ccccc1)C(=O)c1ccccc1 (stereo unspecified),GI50,NCI-H522,> 59.2 µM (inactive)
same,GI50,T47D,> 100 µM (inactive)
same,GI50,SNB-19,26.2 µM (inactive)
same,GI50,SK-MEL-5,> 100 µM (inactive)
same,GI50,SK-MEL-28,> 100 µM (inactive)
same,GI50,HCC 2998,> 100 µM (inactive)
same,GI50,PC-3,> 93.8 µM (inactive)
same,GI50,HCT-116,> 74.8 µM (inactive)
same,GI50,SF-539,31.3 µM (inactive)
same,GI50,HOP-92,20 µM (inactive)
same,GI50,MDA-N,> 100 µM (inactive)
same,GI50,TK-10,> 75.2 µM (inactive)
same,GI50,DU-145,> 100 µM (inactive)
same,GI50,NCI-H226,> 58.7 µM (inactive)
same,GI50,M14,> 100 µM (inactive)
same,GI50,Malme-3M,> 72.1 µM (inactive)
same,GI50,UO-31,> 74.6 µM (inactive)
same,GI50,SN12C,> 100 µM (inactive)
same,GI50,SF-268,30.2 µM (inactive)
same,GI50,UACC-62,51.2 µM (inactive)
same,GI50,SW-620,> 100 µM (inactive)
same,GI50,OVCAR-3,> 100 µM (inactive)
same,GI50,A498,> 100 µM (inactive)
same,GI50,SR,> 100 µM (inactive)
same,GI50,OVCAR-5,> 100 µM (inactive)
same,GI50,LOX IMVI,> 100 µM (inactive)
same,GI50,OVCAR-8,38.7 µM (inactive)
same,GI50,MDA-MB-231,47.8 µM (inactive)
same,GI50,RXF 393,> 52.1 µM (inactive)
same,GI50,NCI-H460,> 100 µM (inactive)
same,GI50,BT-549,> 56.2 µM (inactive)
same,GI50,HOP-62,34 µM (inactive)
same,GI50,HCT-15,> 100 µM
same,GI50,OVCAR-4,51.2 µM (inactive)
same,GI50,Hs-578T,26.2 µM (inactive)
same,GI50,MDA-MB-435,> 100 µM (inactive)
same,GI50,CAKI-1,> 100 µM (inactive)
same,GI50,A549,> 100 µM (inactive)
same,GI50,RPMI-8226,> 100 µM (inactive)
same,GI50,IGROV-1,> 74 µM (inactive)
same,GI50,NCI-H23,71.9 µM (inactive)
same,GI50,MOLT-4,> 100 µM (inactive)
same,GI50,MCF7,> 100 µM (inactive)
same,GI50,NCI/ADR-RES,42.9 µM (inactive)
same,GI50,SK-OV-3,53.3 µM (inactive)
same,GI50,KM12,> 100 µM (inactive)
same,GI50,EKVX,> 77.4 µM (inactive)
same,GI50,HT-29,> 100 µM (inactive)
same,GI50,SNB-75,12.7 µM (inactive)
same,GI50,786-0,27.7 µM (inactive)
same,GI50,U-251,52.4 µM (inactive)
same,GI50,CCRF-CEM,> 100 µM (inactive)
same,GI50,HL-60,> 100 µM (inactive)
same,GI50,UACC-257,> 100 µM (inactive)
same,GI50,K562,> 100 µM (inactive)
same,GI50,ACHN,> 91.8 µM (inactive)
same,GI50,SF-295,38.5 µM (inactive)
same,GI50,COLO 205,> 100 µM (inactive)
same,GI50,SK-MEL-2,> 64.7 µM (inactive)
